From the supplement of paper PMC11061612

Assays:
[1] = tested on: NCI-H1155 (Non-Small Cell Lung Carcinoma); assay: combination Emax (second highest fraction inhibited in the dose matrix, 72 h); higher = more inhibition; extreme values may be limits of the assay
Method in brief: (§1)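 Cell lines in DMEM/F12 or RPMI with 10% FBS were plated in 1536-well plates, held 24 hours at 37°C, 5% CO2, then given two-drug dose matrices for 72 hours (DMSO typically 0.2%). Viability was read by CellTiter-Glo 2.0 luminescence and scaled as inhibition from 0 (vehicle wells) to 1 (blank wells). Combination Emax is the second-highest inhibition in the matrix; Bliss excess is observed combination effect minus expected EA + EB − EA·EB, EA and EB being single-agent effects.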

[2] = tested on: OVTOKO (Ovarian Carcinoma); assay: as above
Method in brief: as §1

[3] = tested on: PC-14 (Lung Adenocarcinoma); assay: Bliss excess, mean over the matrix (fraction); higher = more synergy
Method in brief: as §1

[4] = tested on: NCI-H1563 (Lung Adenocarcinoma); assay: as above
Method in brief: as §1

KYM-1 (Rhabdomyosarcoma) = assay: as above
Method in brief: as §1

[5] = tested on: COLO-684 (Endometrial Carcinoma); assay: as above
Method in brief: as §1

[6] = tested on: RMG-I (Ovarian Carcinoma); assay: as above
Method in brief: as §1

[7] = tested on: Caov-3 (Ovarian Carcinoma); assay: as above
Method in brief: as §1

[8] = tested on: HTC-C3 (Thyroid Gland Carcinoma); assay: as above
Method in brief: as §1

[9] = tested on: LOUCY (T-Lymphoblastic Leukemia); assay: as above
Method in brief: as §1

[10] = tested on: RL95-2 (Endometrial Carcinoma); assay: as above
Method in brief: as §1

[11] = tested on: NCI-H196 (Small Cell Lung Carcinoma); assay: as above
Method in brief: as §1

[12] = tested on: SK-MM-2 (Plasma Cell Myeloma); assay: as above
Method in brief: as §1

[13] = tested on: NCI-H810 (Non-Small Cell Lung Carcinoma); assay: as above
Method in brief: as §1

[14] = tested on: OVTOKO (Ovarian Carcinoma); assay: as above
Method in brief: as §1

[15] = tested on: SJRH30 (Rhabdomyosarcoma); assay: as above
Method in brief: as §1

[16] = tested on: Becker (Low Grade Glioma); assay: as above
Method in brief: as §1

[17] = tested on: AN3-CA (Endometrial Carcinoma); assay: as above
Method in brief: as §1

RT4 (Bladder Carcinoma) = assay: as above
Method in brief: as §1

[18] = tested on: BALL-1 (B-Lymphoblastic Leukemia); assay: as above
Method in brief: as §1
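For Bliss excess, mean over the matrix in this document: after 72 h of two-drug dosing.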

CCN(CCO)CCCOc1ccc2c(Nc3cc(CC(=O)Nc4cccc(F)c4)[nH]n3)ncnc2c1 [AZD2811] + C=CCn1c(=O)c2cnc(Nc3ccc(N4CCN(C)CC4)cc3)nc2n1-c1cccc(C(C)(C)O)n1 [AZD1775] (first compound max 1 µM, partner max 1 µM)
combination Emax [1]: 0.45 | combination Emax [2]: 0.419 | Bliss excess [3]: -0.0026 | Bliss excess [4]: 0.001 | Bliss excess (KYM-1 (Rhabdomyosarcoma)): -0.0096 | Bliss excess [5]: -0.0443 | Bliss excess [6]: -0.0711 | Bliss excess [7]: -0.0603 | Bliss excess [8]: -0.0174 | Bliss excess [9]: -0.019 | Bliss excess [10]: 0.0389 | Bliss excess [11]: -0.0371 | Bliss excess [12]: -0.0005 | Bliss excess [13]: -0.0022 | Bliss excess [14]: -0.0353 | Bliss excess [15]: 0.0089 | Bliss excess [16]: -0.0465 | Bliss excess [17]: 0.0276 | Bliss excess (RT4 (Bladder Carcinoma)): 0.0196 | Bliss excess [18]: 0.0612

CC1(C)CCC(CN2CCN(c3ccc(C(=O)NS(=O)(=O)c4ccc(NCC5CCOCC5)c([N+](=O)[O-])c4)c(Oc4cnc5[nH]ccc5c4)c3)CC2)=C(c2ccc(Cl)cc2)C1 [Venetoclax] + CCN(CCO)CCCOc1ccc2c(Nc3cc(CC(=O)Nc4cccc(F)c4)[nH]n3)ncnc2c1 [AZD2811] (first compound max 1 µM, 7x7, partner max 1 µM)
combination Emax [1]: 0.887 | combination Emax [2]: 0.263 | Bliss excess [3]: 0.0131 | Bliss excess [4]: 0.0151 | Bliss excess (KYM-1 (Rhabdomyosarcoma)): -0.0017 | Bliss excess [5]: -0.0358 | Bliss excess [6]: -0.055 | Bliss excess [7]: -0.0544 | Bliss excess [8]: -0.0236 | Bliss excess [9]: -0.0278 | Bliss excess [10]: 0.0814 | Bliss excess [11]: -0.0463 | Bliss excess [12]: -0.0099 | Bliss excess [13]: -0.034 | Bliss excess [14]: -0.0183 | Bliss excess [15]: 0.0544 | Bliss excess [16]: 0.0074 | Bliss excess [17]: 0.0345 | Bliss excess (RT4 (Bladder Carcinoma)): 0.0704 | Bliss excess [18]: 0.0632

COc1cccc(OCCCN)c1-c1cc(Nc2cnc(C#N)cn2)n[nH]1 [Prexasertib] + C=CCn1c(=O)c2cnc(Nc3ccc(N4CCN(C)CC4)cc3)nc2n1-c1cccc(C(C)(C)O)n1 [AZD1775] (first compound max 1 µM, partner max 1 µM)
combination Emax [1]: 0.963 | combination Emax [2]: 0.606 | Bliss excess [3]: 0.0069 | Bliss excess [4]: -0.0101 | Bliss excess (KYM-1 (Rhabdomyosarcoma)): 0.0713 | Bliss excess [5]: -0.0042 | Bliss excess [6]: 0.0265 | Bliss excess [7]: -0.0546 | Bliss excess [8]: 0.145 | Bliss excess [9]: 0.0578 | Bliss excess [10]: 0.108 | Bliss excess [11]: -0.0317 | Bliss excess [12]: 0.0085 | Bliss excess [13]: 0.0869 | Bliss excess [14]: -0.0519 | Bliss excess [15]: 0.108 | Bliss excess [16]: 0.0374 | Bliss excess [17]: 0.0766 | Bliss excess (RT4 (Bladder Carcinoma)): 0.128 | Bliss excess [18]: 0.0618

COc1cccc(OCCCN)c1-c1cc(Nc2cnc(C#N)cn2)n[nH]1 [Prexasertib] + CN(C)CCCOc1ccc(-c2ccc3ncc4c(c3c2)n(C2CCOCC2)c(=O)n4C)cn1 [AZD0156] (first compound max 1 µM, 7x7, partner max 1 µM)
combination Emax [1]: 0.885 | combination Emax [2]: 0.647 | Bliss excess [3]: -0.0284 | Bliss excess [4]: -0.0416 | Bliss excess (KYM-1 (Rhabdomyosarcoma)): 0.0147 | Bliss excess [5]: -0.0172 | Bliss excess [6]: -0.04 | Bliss excess [7]: -0.0134 | Bliss excess [8]: -0.029 | Bliss excess [9]: 0.0036 | Bliss excess [10]: -0.0364 | Bliss excess [11]: -0.0547 | Bliss excess [12]: -0.0392 | Bliss excess [13]: -0.0327 | Bliss excess [14]: 0.0594 | Bliss excess [15]: -0.0242 | Bliss excess [16]: -0.0203 | Bliss excess [17]: -0.0442 | Bliss excess (RT4 (Bladder Carcinoma)): 0.0482 | Bliss excess [18]: 0.0043

COc1cccc(OCCCN)c1-c1cc(Nc2cnc(C#N)cn2)n[nH]1 [Prexasertib] + C[C@@H]1COCCN1C2=NC(=NC(=C2)C3(CC3)[S@](=N)(=O)C)C4=C5C=CNC5=NC=C4 [AZD6738] (first compound max 1 µM, 7x7, partner max 10 µM)
combination Emax [1]: 0.93 | combination Emax [2]: 0.516 | Bliss excess [3]: -0.047 | Bliss excess [4]: -0.0878 | Bliss excess (KYM-1 (Rhabdomyosarcoma)): -0.0107 | Bliss excess [5]: -0.0733 | Bliss excess [6]: 0.0108 | Bliss excess [7]: -0.0647 | Bliss excess [8]: -0.0034 | Bliss excess [9]: -0.0009 | Bliss excess [10]: -0.0487 | Bliss excess [11]: -0.049 | Bliss excess [12]: -0.0348 | Bliss excess [13]: -0.0519 | Bliss excess [14]: 0.0006 | Bliss excess [15]: -0.0192 | Bliss excess [16]: -0.0317 | Bliss excess [17]: -0.0308 | Bliss excess (RT4 (Bladder Carcinoma)): 0.0645 | Bliss excess [18]: -0.001

CN(CCO)CC[C@H](CSc1ccccc1)Nc1ccc(S(=O)(=O)NC(=O)c2ccc(N3CCC([C@@H](O)c4ccccc4-c4ccc(Cl)cc4)CC3)cc2)cc1S(=O)(=O)C(F)(F)F [AZD4320] + Cn1cnc2c(F)c(Nc3ccc(Br)cc3Cl)c(C(=O)NOCCO)cc21 [Selumetinib] (first compound max 1 µM, 7x7, partner max 3 µM)
combination Emax [1]: 0.95 | combination Emax [2]: 0.318 | Bliss excess [3]: 0.0379 | Bliss excess [4]: 0.045 | Bliss excess (KYM-1 (Rhabdomyosarcoma)): 0.0283 | Bliss excess [5]: 0.0023 | Bliss excess [6]: -0.0401 | Bliss excess [7]: -0.0406 | Bliss excess [8]: 0.069 | Bliss excess [9]: 0.0255 | Bliss excess [10]: 0.137 | Bliss excess [11]: -0.0339 | Bliss excess [12]: 0.0514 | Bliss excess [13]: -0.0577 | Bliss excess [14]: 0.0554 | Bliss excess [15]: 0.0587 | Bliss excess [16]: 0.0084 | Bliss excess [17]: 0.0455 | Bliss excess (RT4 (Bladder Carcinoma)): 0.112 | Bliss excess [18]: -0.0246

CN(CCO)CC[C@H](CSc1ccccc1)Nc1ccc(S(=O)(=O)NC(=O)c2ccc(N3CCC([C@@H](O)c4ccccc4-c4ccc(Cl)cc4)CC3)cc2)cc1S(=O)(=O)C(F)(F)F [AZD4320] + C=CCn1c(=O)c2cnc(Nc3ccc(N4CCN(C)CC4)cc3)nc2n1-c1cccc(C(C)(C)O)n1 [AZD1775] (first compound max 1 µM, partner max 1 µM)
combination Emax [1]: 0.908 | combination Emax [2]: 0.621 | Bliss excess [3]: 0.0069 | Bliss excess [4]: -0.0024 | Bliss excess (KYM-1 (Rhabdomyosarcoma)): 0.0515 | Bliss excess [5]: -0.0301 | Bliss excess [6]: 0.0664 | Bliss excess [7]: 0.0779 | Bliss excess [8]: 0.08 | Bliss excess [9]: 0.002 | Bliss excess [10]: 0.006 | Bliss excess [11]: 0.0268 | Bliss excess [12]: 0.0011 | Bliss excess [13]: 0.0105 | Bliss excess [14]: 0.0002 | Bliss excess [15]: 0.0076 | Bliss excess [16]: 0.0046 | Bliss excess [17]: -0.0004 | Bliss excess (RT4 (Bladder Carcinoma)): 0.0755 | Bliss excess [18]: 0.0065
